Columns and labels:
Maize = assay: Herbicidal test, pre- and post-emergence; type: in vivo
Corn Marigold = assay: Selective herbicidal activity; type: in vivo, Chrysanthemum segetum; settings: 2 kg/hectare; 23 days; scale 0 to 5 (complete kill)
Description: (§1) This Example illustrates the selective herbicidal activity of compounds No. 5 and 12 of Table 1. The compounds, formulated as in Example 5 were sprayed on to pots of soil previously sown with seeds of the plant species shown in Tables 13 and 14.
(§2) Table 14 gives the results for compound No. 12 of Table 1 The figures are assessments of damage to the plants 23 days after treatment, on a scale of 0 to 5 where 0 is no effect and 5 is complete kill
Corn marigold Chrysanthemum segetum

Kale = assay: Further herbicidal test, various rates; type: in vivo; settings: scale 0 to 5 (complete kill)
Mayweed = assay: Selective herbicidal activity; type: in vivo, Tripleurospermum maritimum ssp. inodorum; settings: 2 kg/hectare; 23 days; scale 0 to 5 (complete kill)
Description: as §1
Mayweed Tripleurospermum maritimum

Rice = assay: Further herbicidal test, various rates; type: in vivo; settings: scale 0 to 5 (complete kill)
Lettuce = assay: Herbicidal test, pre- and post-emergence; type: in vivo
[1] = system: Plasmopara viticola (vine); assay: Fungicidal test against foliar disease C (foliage spray plus soil drench); type: in vivo; settings: 100 ppm spray and drench; 10 days
[2] = system: Tetranychus telarius (red spider mites, adults); assay: Pest toxicity test; type: in vivo; settings: 0.1% by weight; French bean; 3 days
[3] = system: Puccinia recondita (wheat); assay: Fungicidal test against foliar disease A (foliage spray plus soil drench); type: in vivo; settings: 100 ppm spray and drench; 10 days
[4] = system: Agriolimax reticulatus (slugs); assay: Molluscicidal activity test; type: in vivo, Agriolimax reticulatus (Mull); settings: pellet with 4% by weight; 6 days; 10°C
Summary of the method: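 Compound was applied to a calf feeding pellet at 4% by weight active ingredient after 24 h air drying. Two replicates, each of 2 slugs starved 24 h, were kept with a moist filter paper at 10°C, and kill was assessed after 6 days.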

Tomato = assay: Herbicidal test, pre- and post-emergence; type: in vivo
Pea = assay: Further herbicidal test, various rates; type: in vivo; settings: scale 0 to 5 (complete kill)
[5] = system: Piricularia oryzae (rice); type: in vivo; settings: 100 ppm spray and drench; 7 days
[6] = system: Musca domestica (houseflies); assay: Pest toxicity test, contact test; type: in vivo; settings: 0.1% by weight; milk/sugar; 2 days; flies sprayed directly
Wheat [7] = assay: Herbicidal test, pre- and post-emergence; type: in vivo
[8] = system: Phaedon cochleariae (mustard beetles); assay: Pest toxicity test; type: in vivo
Megoura viceae = assay: Pest toxicity test; type: in vivo; settings: 0.1% by weight; broad bean; 2 days
Aphis fabae = assay: Pest toxicity test; type: in vivo; settings: 0.1% by weight; broad bean; 2 days
Onion = assay: Further herbicidal test, various rates; type: in vivo; settings: scale 0 to 5 (complete kill)
[9] = system: Plutella maculipennis (diamond back moth larvae); assay: Pest toxicity test; type: in vivo
Barley [10] = assay: Further herbicidal test, various rates; type: in vivo; settings: scale 0 to 5 (complete kill)
[11] = system: Aedes aegypti (mosquito adults); assay: Pest toxicity test; type: in vivo; settings: 0.01% by weight; plywood; 1 day
[12] = system: Pieris brassicae (cabbage white caterpillars); assay: Pest toxicity test; type: in vivo; settings: 0.1% by weight, 2 days
Knotgrass = assay: Selective herbicidal activity; type: in vivo, Polygonum aviculare; settings: 2 kg/hectare; 23 days; scale 0 to 5 (complete kill)
Description: as §1, §2
Knotgrass Polygonum aviculare

Oat = assay: Further herbicidal test, various rates; type: in vivo; settings: scale 0 to 5 (complete kill)
Speedwell = assay: Selective herbicidal activity; type: in vivo, Veronica spp; settings: 2 kg/hectare; 23 days; scale 0 to 5 (complete kill)
Description: as §1

Uncinula necator (vine) = assay: Fungicidal test against foliar disease D (foliage spray plus soil drench); type: in vivo; settings: 100 ppm spray and drench; 10 days
[13] = system: Aedes aegypti (mosquito larvae); assay: Pest toxicity test; type: in vivo; settings: 0.01% by weight; water; 1 day
Redshank = assay: Selective herbicidal activity; type: in vivo, Polygonum persicaria; settings: 2 kg/hectare; 23 days; scale 0 to 5 (complete kill)
Description: as §1
Redshank Polygonum persicaria

Barley [14] = assay: Selective herbicidal activity; type: in vivo
Description: as §1, §2

Wheat [15] = assay: Selective herbicidal activity; type: in vivo
Description: as §1, §2

broadleaved plants = assay: Selective herbicidal activity; type: in vivo; settings: Tables 13 and 14
Description: as §1, §2

[16] = system: Tetranychus telarius (red spider mites, eggs); assay: Pest toxicity test; type: in vivo; settings: 0.1% by weight; French bean; 3 days
Carrot = assay: Further herbicidal test, various rates; type: in vivo; settings: scale 0 to 5 (complete kill)
Sugar beet = assay: Further herbicidal test, various rates; type: in vivo; settings: scale 0 to 5 (complete kill)
[17] = system: larvae of the blowfly (Lucilia serrata); assay: Insecticidal test on blowfly larvae on treated filter paper; type: in vivo; settings: scale of 1 to 6; filter paper with horse serum
[18] = system: larvae of the tick Boophilus microplus; assay: Similar test on tick larvae on filter paper without horse serum; type: in vivo
[19] = 10 lb/acre (11.2 kg/ha), scale 0 (no effect) to 3 (complete kill)
[20] = 2 kg/hectare, 23 days, scale 0 to 5 (complete kill)
[21] = 10 kg/ha, scale 0 to 3 (complete kill)
[22] = 0.1% by weight, mustard/paper, 2 days

O=[N+]([O-])c1c(F)c(F)c(Nc2c(Cl)c(F)nc(F)c2Cl)c(F)c1F [Compound 12, 3,5-Dichloro-2,6-difluoro-4(4-nitro 2,3,5,6-tetrafluoroanilino) pyridine]
Damage to plants, post-emergence (Maize; [19]): 1
Damage to plants, pre-emergence (Maize; [19]): 3
Damage to plants (Corn Marigold): 3.5
Damage to plants, post-emergence (Kale; 5 lb/acre): 5
Damage to plants, pre-emergence (Kale; 5 lb/acre): 4
Damage to plants (Mayweed): 5
Damage to plants, post-emergence (Rice; 5 lb/acre): 0
Damage to plants, post-emergence (Lettuce; [19]): 3
Damage to plants, pre-emergence (Lettuce; [19]): 3
Amount of disease grading, disease C [1]: 3 (0 to 5)
Mortality grading (kill) [2]: 3 (3 represents over 90% kill)
Amount of disease grading, disease A [3]: 2 (6 to 25)
% Kill of slugs [4]: 50%
Damage to plants, post-emergence (Tomato; [19]): 3
Damage to plants, pre-emergence (Tomato; [19]): 3
Damage to plants, post-emergence (Pea; 5 lb/acre): 1
Damage to plants, pre-emergence (Pea; 5 lb/acre): 3
Amount of disease grading, disease E [5]: 0 (61 to 100)
Mortality grading (kill), contact test [6]: 2 (2 represents 60 - 90% kill)
Damage to plants, post-emergence (Wheat [7]; [19]): 0
Damage to plants, pre-emergence (Wheat [7]; [19]): 3
Mortality grading (kill) ([8]; in vivo): 0 (key: O represents less than 30% kill; 1 represents 30 - 49% kill; 2 represents 60 - 90% kill; 3 represents over 90% kill; C indicates a chemosterilant effect.; A indicates an antifeeding effect.)
Mortality grading (kill) (Megoura viceae): 3 (3 represents over 90% kill)
Mortality grading (kill) (Aphis fabae): 3 (3 represents over 90% kill)
Damage to plants, post-emergence (Onion; 5 lb/acre): 0
Mortality grading (kill) ([9]; in vivo): 0 (key: O represents less than 30% kill; 1 represents 30 - 49% kill; 2 represents 60 - 90% kill; 3 represents over 90% kill; C indicates a chemosterilant effect.; A indicates an antifeeding effect.)
Damage to plants, post-emergence (Barley [10]; 5 lb/acre): 2
Mortality grading (kill) [11]: 0 (O represents less than 30% kill)
Mortality grading (kill) [12]: 0 (O represents less than 30% kill)
Damage to plants (Knotgrass): 4
Damage to plants, post-emergence (Oat; 5 lb/acre): 0
Damage to plants, pre-emergence (Oat; 5 lb/acre): 0
Damage to plants (Speedwell): 0
Amount of disease grading, disease D (Uncinula necator (vine)): 3 (0 to 5)
Mortality grading (kill) [13]: 3 (3 represents over 90% kill)
Damage to plants (Redshank): 5
Damage to plants (Barley [14]; [20]): 1
damage to barley (in words) (Barley [14]; Tables 13 and 14): undamaged
Damage to plants (Wheat [15]; [20]): 0
damage to wheat (in words) (Wheat [15]; Tables 13 and 14): undamaged
damage to the broadleaved plants (in words) (broadleaved plants): caused damage to the broadleaved plants
Mortality grading (kill) [16]: 3 (3 represents over 90% kill)
Damage to plants, post-emergence (Carrot; 5 lb/acre): 5
Damage to plants, pre-emergence (Carrot; 5 lb/acre): 4
Damage to plants, post-emergence (Sugar beet; 5 lb/acre): 5
Damage to plants, pre-emergence (Sugar beet; 5 lb/acre): 4

O=[N+]([O-])c1ccc(Nc2c(F)c(F)nc(F)c2F)c(C(F)(F)F)c1 [Compound 28, 4-(4-Nitro-2-trifluoromethylanilino)-tetrafluoropyridine]
Damage to plants, post-emergence (Maize; [21]): 0
Damage to plants, pre-emergence (Maize; [21]): 0
Damage to plants, post-emergence (Kale; 1 kg/hectare): 5
Damage to plants, pre-emergence (Kale; 1 kg/hectare): 4
Damage to plants, post-emergence (Kale; 5 kg/hectare): 4
Damage to plants, pre-emergence (Kale; 5 kg/hectare): 5
Damage to plants, post-emergence (Rice; 1 kg/hectare): 0
Damage to plants, pre-emergence (Rice; 1 kg/hectare): 4
Damage to plants, post-emergence (Rice; 5 kg/hectare): 0
Damage to plants, pre-emergence (Rice; 5 kg/hectare): 5
Damage to plants, post-emergence (Lettuce; [21]): 3
Damage to plants, pre-emergence (Lettuce; [21]): 3
Amount of disease grading, disease C (Table 4) [1]: 3 (0 to 5)
Mortality grading (kill) [2]: 3 (3 represents over 90% kill)
Amount of disease grading, disease A (Table 4) [3]: 0 (61 to 100)
Damage to plants, post-emergence (Tomato; [21]): 3
Damage to plants, pre-emergence (Tomato; [21]): 3
Activity relative to lindane [17]: 6 (6 represents activity 10 times that of the standard)
Damage to plants, pre-emergence (Pea; 1 kg/hectare): 5
Damage to plants, post-emergence (Pea; 5 kg/hectare): 0
Damage to plants, pre-emergence (Pea; 5 kg/hectare): 5
Mortality grading (kill), contact test [6]: 3 (3 represents over 90% kill)
Damage to plants, post-emergence (Wheat [7]; [21]): 1
Damage to plants, pre-emergence (Wheat [7]; [21]): 3
Mortality grading (kill) [8, 22]: 3 (3 represents over 90% kill)
times more toxic than lindane [18]: 10 times
Mortality grading (kill) (Megoura viceae): 3 (3 represents over 90% kill)
Mortality grading (kill) (Aphis fabae): 3 (3 represents over 90% kill)
Damage to plants, post-emergence (Onion; 1 kg/hectare): 3
Damage to plants, pre-emergence (Onion; 1 kg/hectare): 5
Damage to plants, post-emergence (Onion; 5 kg/hectare): 0
Damage to plants, pre-emergence (Onion; 5 kg/hectare): 5
Mortality grading (kill) [9, 22]: 3 (3 represents over 90% kill)
Damage to plants, post-emergence (Barley [10]; 1 kg/hectare): 1
Damage to plants, pre-emergence (Barley [10]; 1 kg/hectare): 4
Damage to plants, post-emergence (Barley [10]; 5 kg/hectare): 0
Damage to plants, pre-emergence (Barley [10]; 5 kg/hectare): 5
Mortality grading (kill) [11]: 3 (3 represents over 90% kill)
Mortality grading (kill) [12]: 3 (3 represents over 90% kill)
Damage to plants, post-emergence (Oat; 1 kg/hectare): 2
Damage to plants, pre-emergence (Oat; 1 kg/hectare): 4
Damage to plants, post-emergence (Oat; 5 kg/hectare): 0
Damage to plants, pre-emergence (Oat; 5 kg/hectare): 5
Amount of disease grading, disease D (Table 4) (Uncinula necator (vine)): 3 (0 to 5)
Mortality grading (kill) [13]: 3 (3 represents over 90% kill)
Mortality grading (kill) [16]: 3 (3 represents over 90% kill)
Damage to plants, post-emergence (Carrot; 1 kg/hectare): 3
Damage to plants, pre-emergence (Carrot; 1 kg/hectare): 4
Damage to plants, post-emergence (Carrot; 5 kg/hectare): 4
Damage to plants, pre-emergence (Carrot; 5 kg/hectare): 5
Damage to plants, post-emergence (Sugar beet; 1 kg/hectare): 5
Damage to plants, pre-emergence (Sugar beet; 1 kg/hectare): 5
Damage to plants, post-emergence (Sugar beet; 5 kg/hectare): 5
Damage to plants, pre-emergence (Sugar beet; 5 kg/hectare): 5
